This note sets out measurements from patent US10800792B2, “Inhibitors of Bruton's tyrosine kinase and method of their use” (JANSSEN PHARMACEUTICA NV, priority 2015, dated 2020).

The target in this experiment is unphosphorylated-BTK kinase domain (UP-BTK), GST-tagged human BTK (389-659aa) (Homo sapiens (Human), UniProt Q06187). Put plainly: BTK kinase Lanthascreen binding assay. The conditions noted are these: Lanthascreen tracer competition, 60 minutes incubation, pIC50 = negative log of the IC50 in molar; for IC50: read-out: BTK_I_binding pIC50 (converted). The essentials: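 A fluorescent tracer is bound to unphosphorylated BTK; test compound is added to compete it off; the Lanthascreen signal is read and IC50 is fitted, then reported as its negative log in molar.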
unphosphorylated-BTK kinase domain (UP-BTK), GST-tagged human BTK (389-659aa), sequence (Q06187 389-659): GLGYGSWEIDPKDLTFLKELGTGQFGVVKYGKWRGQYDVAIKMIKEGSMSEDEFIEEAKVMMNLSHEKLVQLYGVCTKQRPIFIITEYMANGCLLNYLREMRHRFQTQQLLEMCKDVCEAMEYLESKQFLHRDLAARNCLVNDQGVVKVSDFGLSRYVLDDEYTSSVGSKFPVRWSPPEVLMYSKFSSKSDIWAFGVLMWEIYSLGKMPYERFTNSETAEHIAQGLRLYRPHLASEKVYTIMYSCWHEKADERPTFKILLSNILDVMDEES
A general note: Time-resolved FRET reads energy transfer from a long-lived donor to a nearby acceptor.

For the compound `CC(=O)N1CCC[C@@H](NC(=O)c2sc3nccc4c3c2NC(=O)N4c2ccc(Oc3ccccn3)cc2)C1` [Example 808, (R)—N-(1-Acetylpiperidin-3-yl)-4-oxo-5-(4-(pyridin-2-yloxy)phenyl)-4,5-dihydro-3H-1-thia-3,5,8-triazaacenaphthylene-2-carboxamide], the “BTK_I_binding pIC50” value was below 6. On the same count and under the same terms, then `CCC(=O)N1CCC[C@@H](NC(=O)c2sc3nccc4c3c2NC(=O)N4c2ccc(Oc3cccnn3)cc2C)C1` [Example 809, (R)-5-(2-Methyl-4-(pyridazin-3-yloxy)phenyl)-4-oxo-N-(1-propionylpiperidin-3-yl)-4,5-dihydro-3H-1-thia-3,5,8-triazaacenaphthylene-2-carboxamide], with below 6; and `CC(=O)N1CCC[C@@H](NC(=O)c2sc3nccc4c3c2NC(=O)N4c2ccc(Oc3cccnn3)cc2C)C1` [Example 810, (R)—N-(1-Acetylpiperidin-3-yl)-5-(2-methyl-4-(pyridazin-3-yloxy)phenyl)-4-oxo-4,5-dihydro-3H-1-thia-3,5,8-triazaacenaphthylene-2-carboxamide], with below 6; and `CC(=O)N1CCC[C@@H](NC(=O)c2sc3nccc4c3c2NC(=O)N4c2ccc(Oc3cccnn3)cc2)C1` [Example 812, (R)—N-(1-Acetylpiperidin-3-yl)-4-oxo-5-(4-(pyridazin-3-yloxy)phenyl)-4,5-dihydro-3H-1-thia-3,5,8-triazaacenaphthylene-2-carboxamide], with below 6. On to `Cc1cc(Oc2ccccc2)ccc1N1C(=O)Nc2c(NC(=O)C3CCCN(C(=O)/C(C#N)=C/C(C)(C)C)C3)sc3nccc1c23` (stereo not shown) [Example 816, (E)-1-(2-Cyano-4,4-dimethylpent-2-enoyl)-N-(5-(2-methyl-4-phenoxyphenyl)-4-oxo-4,5-dihydro-3H-1-thia-3,5,8-triazaacenaphthylen-2-yl)piperidine-3-carboxamide], for which the IC50 is 1000 nM. As to `Cc1cc(Oc2ccccc2)ccc1N1C(=O)Nc2c(NC(=O)C3CCCN(C(=O)CC#N)C3)sc3nccc1c23` (stereo not shown) [Example 817, 1-(2-Cyanoacetyl)-N-(5-(2-methyl-4-phenoxyphenyl)-4-oxo-4,5-dihydro-3H-1-thia-3,5,8-triazaacenaphthylen-2-yl)piperidine-3-carboxamide], the “BTK_I_binding pIC50” value amounted to 6.0.

Regarding `CCC(=O)N1CCCC(C(=O)Nc2sc3nccc4c3c2NC(=O)N4c2ccc(Oc3ccccc3)cc2C)C1` (stereo not shown) [Example 818, N-(5-(2-Methyl-4-phenoxyphenyl)-4-oxo-4,5-dihydro-3H-1-thia-3,5,8-triazaacenaphthylen-2-yl)-1-propionylpiperidine-3-carboxamide], the “BTK_I_binding pIC50” value came out at 5.9. For `Cc1cc(Oc2ccccc2)ccc1N1C(=O)Nc2c(NC(=O)C3CCN(C(=O)CC#N)CC3)sc3nccc1c23` [Example 819, 1-(2-Cyanoacetyl)-N-(5-(2-methyl-4-phenoxyphenyl)-4-oxo-4,5-dihydro-3H-1-thia-3,5,8-triazaacenaphthylen-2-yl)piperidine-4-carboxamide], the “BTK_I_binding pIC50” value is 5.9. For the compound `C=CC(=O)N1CCC(C(=O)Nc2sc3nccc4c3c2NC(=O)N4c2ccc(Oc3ccccc3)cc2C)CC1` [Example 820, 1-Acryloyl-N-(5-(2-methyl-4-phenoxyphenyl)-4-oxo-4,5-dihydro-3H-1-thia-3,5,8-triazaacenaphthylen-2-yl)piperidine-4-carboxamide], the “BTK_I_binding pIC50” value came out at 5.9.

With `CCN1CCCC(C(=O)Nc2sc3nccc4c3c2NC(=O)N4c2ccc(Oc3ccccc3)cc2C)C1` (stereo not shown) [Example 821, 1-Ethyl-N-(5-(2-methyl-4-phenoxyphenyl)-4-oxo-4,5-dihydro-3H-1-thia-3,5,8-triazaacenaphthylen-2-yl)piperidine-3-carboxamide], the “BTK_I_binding pIC50” value worked out at 5.8. Still for that read-out and setting: next, `Cc1cc(Oc2ccccc2)ccc1N1C(=O)Nc2c(NC(=O)C3CCN(C#N)CC3)sc3nccc1c23` [Example 822, 1-Cyano-N-(5-(2-methyl-4-phenoxyphenyl)-4-oxo-4,5-dihydro-3H-1-thia-3,5,8-triazaacenaphthylen-2-yl)piperidine-4-carboxamide]: 5.8. As to `Cc1cc(Oc2ccccc2)ccc1N1C(=O)Nc2c(NC(=O)C3CCCN(C)C3)sc3nccc1c23` (stereo not shown) [Example 823, 1-Methyl-N-(5-(2-methyl-4-phenoxyphenyl)-4-oxo-4,5-dihydro-3H-1-thia-3,5,8-triazaacenaphthylen-2-yl)piperidine-3-carboxamide], the IC50 was 3160 nM. For `Cc1cc(C(=O)Nc2cc(C(F)(F)F)ccn2)ccc1N1C(=O)Nc2c(C(=O)N[C@@H]3CCCN(C(=O)/C(C#N)=C/C4CC4)C3)sc3nccc1c23` [Example 835, (R,E)-N-(1-(2-Cyano-3-cyclopropylacryloyl)piperidin-3-yl)-5-(2-methyl-4-((4-(trifluoromethyl)pyridin-2-yl)carbamoyl)phenyl)-4-oxo-4,5-dihydro-3H-1-thia-3,5,8-triazaacenaphthylene-2-carboxamide], the “BTK_I_binding pIC50” value stood at 8.0. Consider `N#C/C(=C\C1CC1)C(=O)N1CCC[C@@H](NC(=O)c2sc3nccc4c3c2NC(=O)N4c2ccc(C(=O)Nc3cc(C(F)(F)F)ccn3)cc2F)C1` [Example 836, (R,E)-N-(1-(2-Cyano-3-cyclopropylacryloyl)piperidin-3-yl)-5-(2-fluoro-4-((4-(trifluoromethyl)pyridin-2-yl)carbamoyl)phenyl)-4-oxo-4,5-dihydro-3H-1-thia-3,5,8-triazaacenaphthylene-2-carboxamide], for which the “BTK_I_binding pIC50” value was found to be 7.9.

On to `Cc1cc(Oc2ccccc2)ccc1N1C(=O)Nc2c(C(=O)N[C@@H]3CCN(C#N)C3)sc3nccc1c23` [Example 837, (R)—N-(1-Cyanopyrrolidin-3-yl)-5-(2-methyl-4-phenoxyphenyl)-4-oxo-4,5-dihydro-3H-1-thia-3,5,8-triazaacenaphthylene-2-carboxamide], for which the “BTK_I_binding pIC50” value is 7.9.

On to `Cc1cc(Oc2ccccc2)ccc1N1C(=O)Nc2c(C(=O)N[C@@H]3CCN(C(=O)CC#N)C3)sc3nccc1c23` [Example 838, (R)—N-(1-(2-Cyanoacetyl)pyrrolidin-3-yl)-5-(2-methyl-4-phenoxyphenyl)-4-oxo-4,5-dihydro-3H-1-thia-3,5,8-triazaacenaphthylene-2-carboxamide], for which the “BTK_I_binding pIC50” value was 7.9.

`C=CC(=O)N1CCC[C@@H](NC(=O)c2sc3nccc4c3c2NC(=O)N4c2ccc(Oc3ccccc3)cc2C)C1` [Example 839, (R)—N-(1-Acryloylpiperidin-3-yl)-5-(2-methyl-4-phenoxyphenyl)-4-oxo-4,5-dihydro-3H-1-thia-3,5,8-triazaacenaphthylene-2-carboxamide]: the IC50 is 12.6 nM. On to `N#C/C(=C\C1CC1)C(=O)N1CCC[C@@H](NC(=O)c2sc3nccc4c3c2NC(=O)N4c2cccc(Oc3ccccc3)c2)C1` [Example 840, (R,E)-N-(1-(2-Cyano-3-cyclopropylacryloyl)piperidin-3-yl)-4-oxo-5-(3-phenoxyphenyl)-4,5-dihydro-3H-1-thia-3,5,8-triazaacenaphthylene-2-carboxamide], for which the “BTK_I_binding pIC50” value is 7.8. Still for that read-out and setting: next, `COCCC(=O)N1CCC[C@@H](NC(=O)c2sc3nccc4c3c2NC(=O)N4c2ccc(Oc3ccccc3)cc2C)C1` [Example 841, (R)—N-(1-(3-Methoxypropanoyl)piperidin-3-yl)-5-(2-methyl-4-phenoxyphenyl)-4-oxo-4,5-dihydro-3H-1-thia-3,5,8-triazaacenaphthylene-2-carboxamide]: 7.7; `C=CC(=O)N1CCC[C@@H](NC(=O)c2sc3nccc4c3c2NC(=O)N4c2cc(-c3cccc(F)c3F)ccc2C)C1` [Example 842, (R)—N-(1-Acryloylpiperidin-3-yl)-5-(2′,3′-difluoro-4-methyl-[1,1′-biphenyl]-3-yl)-4-oxo-4,5-dihydro-3H-1-thia-3,5,8-triazaacenaphthylene-2-carboxamide]: 7.7; `CCC(=O)N1CC[C@@H](NC(=O)c2sc3nccc4c3c2NC(=O)N4c2ccc(Oc3ccccc3)cc2C)C1` [Example 843, (R)-5-(2-Methyl-4-phenoxyphenyl)-4-oxo-N-(1-propionylpyrrolidin-3-yl)-4,5-dihydro-3H-1-thia-3,5,8-triazaacenaphthylene-2-carboxamide]: 7.6. Still for that read-out and setting: then `Cc1cc(Oc2ccccc2)ccc1N1C(=O)Nc2c(C(=O)N[C@@H]3CCN(C(=O)/C(C#N)=C/C4CC4)C3)sc3nccc1c23` [Example 844, (R,E)-N-(1-(2-Cyano-3-cyclopropylacryloyl)pyrrolidin-3-yl)-5-(2-methyl-4-phenoxyphenyl)-4-oxo-4,5-dihydro-3H-1-thia-3,5,8-triazaacenaphthylene-2-carboxamide], with 7.6; and `C=CC(=O)N1CCC[C@@H](NC(=O)c2sc3nccc4c3c2NC(=O)N4c2ccc(Oc3ccccn3)cc2)C1` [Example 846, (R)—N-(1-Acryloylpiperidin-3-yl)-4-oxo-5-(4-(pyridin-2-yloxy)phenyl)-4,5-dihydro-3H-1-thia-3,5,8-triazaacenaphthylene-2-carboxamide], with 7.6.

`C=CC(=O)N1CC[C@@H](NC(=O)c2sc3nccc4c3c2NC(=O)N4c2ccc(Oc3cccc(COc4ccccc4C#N)c3)cc2C)C1` [Example 847, (R)—N-(1-Acryloylpyrrolidin-3-yl)-5-(4-(3-((2-cyanophenoxy)methyl)phenoxy)-2-methylphenyl)-4-oxo-4,5-dihydro-3H-1-thia-3,5,8-triazaacenaphthylene-2-carboxamide]: the “BTK_I_binding pIC50” value was determined as 7.6. On the same count and under the same terms, then `CN[C@H](C)C(=O)N1CCC[C@@H](NC(=O)c2sc3nccc4c3c2NC(=O)N4c2ccc(Oc3ccccc3)cc2C)C1` [Example 848, 5-(2-Methyl-4-phenoxyphenyl)-N—((R)-1-((R)-2-(methylamino)propanol)piperidin-3-yl)-4-oxo-4,5-dihydro-3H-1-thia-3,5,8-triazaacenaphthylene-2-carboxamide], with 7.6.
